Laboratory results from US9790253B2, “OSW-1 analogs and conjugates, and uses thereof” (priority 2011, dated 2017).
Read-outs that look alike come from different tables or passages of the source.

Columns and labels:
CHO-K1 cells = assay: Sphingomyelin biosynthesis, [3H]-serine pulse-labeling, CHO-K1; format: cell-based
Experimental: (§1) Sphingomyelin is biosynthesized from ceramide at the Golgi apparatus. Ceramide is primarily transported from the ER to the Golgi by ceramide transport protein (CERT), and the transport activity of CERT is both OSBP1- and VAP-A dependent. […] To determine whether the ORPphilins affect sphingomyelin synthesis, pulse-labeling with [^3H]-serine was performed in CHO-K1 and HCT-116 cells and the amount of tritium incorporated into sphingomyelin and other lipids then measured. Cells were treated with vehicle or compound for 6 h, and in the last 2 h the cells were pulsed with 10 μCi [^3H]-serine. Lipids were extracted and isolated by TLC, and label incorporation into sphingomyelin was measured by scintillation counting.

[1] = target: OSBP (oxysterol-binding protein) (Homo sapiens, UniProt P22059); conditions: cited from earlier work
OSBP1-myc-his = target: T1, OSBP1-myc-his (Homo sapiens, UniProt P22059); assay: [3H]-25-hydroxycholesterol charcoal-dextran binding assay with OSBP1-myc-his; conditions: for Ki: competition with 20 nM [3H]-25-OHC, HEK-293T S100 lysate, 4° C., 16 h, read-out: [^3H]-25-OHC K1 (nM) OSBP1-myc-his
T1 construct: made in house; host or cells: HEK-293T (transient transfection; S100 lysate, not purified)
T1 sequence (P22059 1-807): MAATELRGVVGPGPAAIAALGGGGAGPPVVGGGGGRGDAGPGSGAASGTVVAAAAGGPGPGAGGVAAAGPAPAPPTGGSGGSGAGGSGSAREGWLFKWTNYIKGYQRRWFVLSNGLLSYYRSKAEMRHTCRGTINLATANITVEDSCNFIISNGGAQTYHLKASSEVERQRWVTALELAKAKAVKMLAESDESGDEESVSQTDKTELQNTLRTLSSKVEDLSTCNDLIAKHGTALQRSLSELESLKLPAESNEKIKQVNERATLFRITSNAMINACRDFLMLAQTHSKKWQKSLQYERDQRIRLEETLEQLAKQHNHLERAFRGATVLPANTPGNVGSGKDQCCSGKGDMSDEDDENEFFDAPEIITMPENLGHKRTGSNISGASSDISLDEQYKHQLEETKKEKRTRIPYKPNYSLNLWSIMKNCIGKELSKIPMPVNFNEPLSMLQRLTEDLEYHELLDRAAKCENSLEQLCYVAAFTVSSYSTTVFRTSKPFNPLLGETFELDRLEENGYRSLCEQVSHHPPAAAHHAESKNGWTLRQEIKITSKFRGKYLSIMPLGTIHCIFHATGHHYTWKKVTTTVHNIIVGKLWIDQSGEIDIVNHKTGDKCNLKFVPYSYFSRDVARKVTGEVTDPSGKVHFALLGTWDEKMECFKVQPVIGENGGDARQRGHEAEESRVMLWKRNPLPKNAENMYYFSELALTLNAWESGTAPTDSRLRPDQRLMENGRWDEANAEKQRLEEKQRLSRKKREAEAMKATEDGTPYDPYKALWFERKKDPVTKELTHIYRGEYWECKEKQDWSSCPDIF
Source text: [^3H]-25-Hydroxycholesterol charcoal-dextran binding assay.
(§2) Methods are described above in the General Methods section.

[2] = tested on: CERT protein levels in HCT-116 cells or A549 cells; assay: CERT protein levels; format: cell-based, human; conditions: high dose (GI90)
Experimental: Suppression of CERT expression is reported to cause a significant reduction in basal SM biosynthesis. Therefore, 1 and 2 were tested for their ability to induce a reduction in CERT levels, akin to the effects of 1 and 2 on OSBP1 levels.

[3] = tested on: OSBP1 localization in A549 cells; assay: OSBP1 localization by immunofluorescence microscopy, A549; format: cell-based, human
Experimental: Immunofluorescence microscopy. HCT-116 or A549 (adenocarcinomic human alveolar basal epithelial) cells were plated on coverslips in 6-well plates. After 72 h, the culture media was removed and replaced with media containing either compound or vehicle control. At the indicated time-points, the cells were fixed for 10 min using 3.7% formaldehyde in PBS. The coverslips were washed with PBS and permeabilized for 5 min with 0.5% Triton X-100 in PBS. Following PBS washing, the coverslips were blocked for 30 min using Image-iT™ FX (Invitrogen), washed with PBS, and then blocked for 30 min at room temperature (RT) with 1% BSA in PBS (BSA/PBS). The coverslips were then incubated overnight at 4° C. with a primary antibody solution in BSA/PBS. The coverslips were washed with BSA/PBS and incubated for 60 min at RT with Alexa Fluor®-conjugated secondary antibodies (Invitrogen) in BSA/PBS, with the final 30 min including incubation with Hoescht 33258. The coverslips were then washed sequentially with BSA/PBS, PBS, and water and finally mounted on microscope slides using Aqua Poly/Mount (Polysciences Inc.). Imaging data was acquired using Zeiss LSM 510 META scanning confocal microscope.
Perturbations of OSBP1 localization by 1, 2, and 4b in A549 cells were also observed.

[4] = tested on: CLL (chronic lymphocytic leukemia) cells taken from patients; conditions: read-out: GI50 fludarabine-refractory CLL cells; cited from earlier work
HCT-116 cells = assay: [3H]-serine pulse-labeling, HCT-116; format: cell-based, human; conditions: range of concentrations
Experimental: as §1

NCI-60 = conditions: read-out: average GI50 against the NCI-60; cited from earlier work
[5] = tested on: HCT-116 p21^+/+ (wt) cells; assay: Growth inhibition (cell viability assay) of HCT-116 p21+/+ cells; conditions: for GI50: HCT-116 p21+/+
Experimental: Cell viability assay. Cells were plated into 96-well plates in 75 μL of media. After 24 h, a time-zero plate was produced by adding 25 μL of media and 20 μL of CellTiter-Blue® (Promega) to the wells, followed by incubation at 37° C. for 90 min. Fluorescence (544 nm excitation; 590 nm emission) was detected using a SPECTRAmax® Gemini XS to establish cell viability at time of dosing. Then, compounds were serially diluted in media and delivered to the cells as 4× solutions in 25 μL of media. At either 48 h or 72 h, CellTiter-Blue® was added and the fluorescence was recorded as described above.
Tasdemir et al. (2002) J Nat Prod 65:210-4. GI50-values of the compounds were determined in HCT-116 p21^+/+ (wt) and p21^−/− cells after 48 h using a resazurin redox dye to measure cell viability.
as §2

normal astrocytes = conditions: cited from earlier work
U87-MG = conditions: cited from earlier work
tumor xenograft = conditions: i.p. 9.3 mg/kg (Q2Dx4); cited from earlier work

Molecule: C[C@H](CCCC(C)(C)O)[C@H]1CC[C@H]2[C@@H]3CC=C4C[C@@H](O)CC[C@]4(C)[C@H]3CC[C@]12C [Compound 25-OHC, 25-hydroxycholesterol]
- increase in the biosynthesis of sphingomyelin (SM) (CHO-K1 cells; 5 μM, 6 h): ca. 4 fold
- SM biosynthesis at GI90 dose (CHO-K1 cells; 15 μM): robust stimulation
- Kd [1]: 37 nM
- Kd (OSBP1-myc-his; direct binding): 32 ± 14 nM

Molecule: COc1ccc(C(=O)O[C@H]2[C@H](O[C@@H]3[C@@H](OC(C)=O)[C@H](O[C@H]4C[C@H]5[C@@H]6CC=C7C[C@@H](O)CC[C@]7(C)[C@H]6CC[C@]5(C)[C@@]4(O)[C@H](C)C(=O)CCC(C)C)OC[C@@H]3O)OC[C@@H](O)[C@@H]2O)cc1 [OSW-1]
- effect on CERT protein levels [2]: did not affect
- OSBP1 localization [3]: induced dispersal or vesiculation of OSBP1
- GI50 [4]: 0.3 nM
- Ki (OSBP1-myc-his): 26 ± 9 nM
- ceramide labeling (HCT-116 cells): no effect
- GI50 (NCI-60): 0.78 nM
- GI50 ([5]; read-out: GI50 (nM) 48 h p21^+/+, 48 h): 28 nM
- GI50 ([5]; read-out: GI50 (nM) 72 h p21^+/+, 72 h): 1.6 ± 0.6 nM
- GI50 (normal astrocytes): 7.13 nM
- GI50 (U87-MG): 0.047 nM
- selectivity, malignant brain tumor cells versus normal astrocytes (U87-MG): 150 fold

Molecule: C[C@@H]1[C@]2(O[C@H]3C=C4[C@@H]5CC[C@H]6Cc7nc8c(nc7C[C@]6(C)[C@H]5C[C@@H](O)[C@]4(C)[C@]31O)C[C@@H]1CC[C@H]3C4=CC[C@@H]5[C@H](C)[C@@]6(OC[C@]45C(=O)C[C@@H]3[C@@]1(C)C8)OC(C)(C)C[C@H]6O)O[C@](C)(CO)C[C@H]2O [cephalostatin 1, Cephalostatin 1]
- effect on CERT protein levels [2]: did not affect
- OSBP1 localization [3]: induced dispersal or vesiculation of OSBP1
- Ki (OSBP1-myc-his): 39 ± 10 nM

Molecule: schweinfurthin A
- toxicity (tumor xenograft): without overt toxicity
- tumor volume (tumor xenograft): reduction in tumor volume compared to vehicle-treated controls
- Ki (OSBP1-myc-his): 68 ± 23 nM
- GI50 (NCI-60): 360 nM
- fold less cytotoxic than the other ORPphilins [5]: 100-300 fold
